# Measurements reported in ChEMBL document CHEMBL1287762, “Synthesis and biological evaluation of 3-[4-(amino/methylsulfonyl)phenyl]methylene-indolin-2-one derivatives as novel COX-1/2 and 5-LOX inhibitors” (Bioorg Med Chem Lett, 2010).
# Counter-ions that a name gives are not always drawn.
# Experiments:
# [1] = Inhibition of 5-LOX in rabbit peripheral venous blood assessed as formation of […] after 30 mins by HPLC; assay type: tissue-based, Oryctolagus cuniculus
# [2] = target: T1, Prostaglandin G/H synthase 1 (Oryctolagus cuniculus, UniProt O97554); experiment: Inhibition of COX-1 in rabbit peripheral venous blood assessed as formation of 12-hydroxyheptadecatrienoic acid after 24 hrs by HPLC in presence of calcium ionophore A23187
# T1 sequence (O97554 whole entry): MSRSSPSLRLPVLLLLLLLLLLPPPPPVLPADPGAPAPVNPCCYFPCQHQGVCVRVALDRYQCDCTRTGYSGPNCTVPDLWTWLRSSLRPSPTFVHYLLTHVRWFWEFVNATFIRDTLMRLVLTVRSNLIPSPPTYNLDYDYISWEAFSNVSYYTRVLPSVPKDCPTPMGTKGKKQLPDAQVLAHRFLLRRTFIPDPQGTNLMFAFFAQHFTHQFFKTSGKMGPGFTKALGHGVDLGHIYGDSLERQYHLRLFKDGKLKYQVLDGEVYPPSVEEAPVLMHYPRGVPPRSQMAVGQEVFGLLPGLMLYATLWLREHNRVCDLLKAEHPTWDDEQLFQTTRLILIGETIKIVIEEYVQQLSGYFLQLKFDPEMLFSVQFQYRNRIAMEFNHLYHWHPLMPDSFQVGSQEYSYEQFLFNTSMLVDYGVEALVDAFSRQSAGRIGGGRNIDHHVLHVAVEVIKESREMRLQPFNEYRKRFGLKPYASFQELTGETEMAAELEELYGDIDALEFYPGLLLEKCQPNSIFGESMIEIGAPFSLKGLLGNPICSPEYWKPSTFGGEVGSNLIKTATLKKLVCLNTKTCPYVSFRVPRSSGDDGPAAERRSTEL
# [3] = species on record: Oryctolagus cuniculus; experiment: Selectivity ratio, IC50 for COX-1in rabbit peripheral venous blood to IC50 for COX-2 in rabbit peripheral venous blood; assay type: tissue-based
# [4] = target: T2, Prostaglandin G/H synthase 2 (Oryctolagus cuniculus, UniProt O02768); experiment: Inhibition of COX-2 in rabbit peripheral venous blood assessed as formation of 12-hydroxyheptadecatrienoic acid after 24 hrs in by HPLC presence of calcium ionophore […] and lipopolysaccharide; assay type: tissue-based
# T2 sequence (O02768 whole entry): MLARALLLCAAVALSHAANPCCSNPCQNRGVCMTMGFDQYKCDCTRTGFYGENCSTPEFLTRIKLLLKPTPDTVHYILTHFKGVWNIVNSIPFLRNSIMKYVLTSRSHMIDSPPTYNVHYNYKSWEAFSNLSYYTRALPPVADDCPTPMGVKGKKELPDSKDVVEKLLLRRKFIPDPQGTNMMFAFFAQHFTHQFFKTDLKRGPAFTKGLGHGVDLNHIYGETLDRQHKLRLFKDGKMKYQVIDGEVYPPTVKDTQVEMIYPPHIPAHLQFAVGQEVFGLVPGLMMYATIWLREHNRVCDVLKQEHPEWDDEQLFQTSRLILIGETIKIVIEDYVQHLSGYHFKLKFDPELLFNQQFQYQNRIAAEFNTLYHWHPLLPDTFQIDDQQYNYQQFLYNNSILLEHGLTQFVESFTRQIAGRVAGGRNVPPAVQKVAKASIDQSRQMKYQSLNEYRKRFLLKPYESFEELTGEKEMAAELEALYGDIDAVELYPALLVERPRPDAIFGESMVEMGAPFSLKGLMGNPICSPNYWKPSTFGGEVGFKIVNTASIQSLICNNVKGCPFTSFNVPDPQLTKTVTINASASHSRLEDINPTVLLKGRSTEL
# [5] = tested on: Rattus norvegicus; experiment: Antiinflammatory activity in Wistar rat assessed as inhibition of carrageenan-induced paw edema at 9.65 mg/kg, po administered 1 hr before carrageenan challenge measured at 1 hr by plethysmometer; assay type: functional
# [6] = tested on: Mus musculus; experiment: Analgesic activity in BALB/c mouse assessed as inhibition of acetic acid-induced writhing response for 15 mins at 19.30 mg/kg, po; assay type: functional; conditions: 0.25 h
# [7] = tested on: Rattus norvegicus; experiment: Antiinflammatory activity in Wistar rat assessed as inhibition of carrageenan-induced paw edema at 9.65 mg/kg, po administered 1 hr before carrageenan challenge measured at 3 hrs by plethysmometer; assay type: functional
# [8] = tested on: Rattus norvegicus; experiment: Ulcerogenic effect in Wistar rat assessed as gastric ulcer area at 9.65 mg/kg, po administered for 7 days by microscopy; assay type: toxicity, organism-based, Stomach; set-up: dose 9.65 mg/kg, route oral; conditions: in vivo, 168 h
# [9] = tested on: Rattus norvegicus; experiment: Antiinflammatory activity in Wistar rat assessed as inhibition of carrageenan-induced paw edema at 9.65 mg/kg, po administered 1 hr before carrageenan challenge measured at 6 hrs by plethysmometer; assay type: functional
# [10] = tested on: Rattus norvegicus; experiment: Ulcerogenic effect in Wistar rat assessed as gastric ulcer area at 10.15 mg/kg, po administered for 7 days by microscopy; assay type: toxicity, organism-based, Stomach; set-up: dose 10.15 mg/kg, route oral; conditions: in vivo, 168 h
# [11] = tested on: Rattus norvegicus; experiment: Antiinflammatory activity in Wistar rat assessed as inhibition of carrageenan-induced paw edema at 10.15 mg/kg, po administered 1 hr before carrageenan challenge measured at 6 hrs by plethysmometer; assay type: functional
# [12] = tested on: Rattus norvegicus; experiment: Antiinflammatory activity in Wistar rat assessed as inhibition of carrageenan-induced paw edema at 10.15 mg/kg, po administered 1 hr before carrageenan challenge measured at 1 hr by plethysmometer; assay type: functional
# [13] = tested on: Rattus norvegicus; experiment: Antiinflammatory activity in Wistar rat assessed as inhibition of carrageenan-induced paw edema at 10.15 mg/kg, po administered 1 hr before carrageenan challenge measured at 3 hrs by plethysmometer; assay type: functional
# [14] = tested on: Mus musculus; experiment: Analgesic activity in BALB/c mouse assessed as inhibition of acetic acid-induced writhing response for 15 mins at 20.30 mg/kg, po; assay type: functional; conditions: 0.25 h
# [15] = tested on: Rattus norvegicus; experiment: Ulcerogenic effect in Wistar rat assessed as gastric ulcer area at 10.12 mg/kg, po administered for 7 days by microscopy; assay type: toxicity, organism-based, Stomach; set-up: dose 10.12 mg/kg, route oral; conditions: in vivo, 168 h
# [16] = tested on: Mus musculus; experiment: Analgesic activity in BALB/c mouse assessed as inhibition of acetic acid-induced writhing response for 15 mins at 20.24 mg/kg, po; assay type: functional; conditions: 0.25 h
# [17] = tested on: Rattus norvegicus; experiment: Antiinflammatory activity in Wistar rat assessed as inhibition of carrageenan-induced paw edema at 10.12 mg/kg, po administered 1 hr before carrageenan challenge measured at 1 hr by plethysmometer; assay type: functional
# [18] = tested on: Rattus norvegicus; experiment: Antiinflammatory activity in Wistar rat assessed as inhibition of carrageenan-induced paw edema at 10.12 mg/kg, po administered 1 hr before carrageenan challenge measured at 3 hrs by plethysmometer; assay type: functional
# [19] = tested on: Rattus norvegicus; experiment: Antiinflammatory activity in Wistar rat assessed as inhibition of carrageenan-induced paw edema at 10.12 mg/kg, po administered 1 hr before carrageenan challenge measured at 6 hrs by plethysmometer; assay type: functional
SMILES,IC50 [1],IC50 [2],IC50 [4],Ratio IC50 [3],also measured
NS(=O)(=O)c1ccc(/C=C2/C(=O)Nc3ccccc32)cc1,> 50 µM,> 50 µM,> 50000 nM,–,–
CS(=O)(=O)c1ccc(/C=C2/C(=O)Nc3cc(Cl)ccc32)cc1,2.99 µM,0.24 µM,2390 nM,0.1,Activity [15]: 0.75 mm2; inhibition in vivo at 20.24 mg/kg [16]: 55.2%; inhibition in vivo at 10.12 mg/kg [17]: 19.4%; inhibition in vivo at 10.12 mg/kg [18]: 23.8%; inhibition in vivo at 10.12 mg/kg [19]: 21.6%
CC(C)(C)c1cc(/C=C2\SC(N)=NC2=O)cc(C(C)(C)C)c1O [DARBUFELONE MESYLATE],–,37.6 µM,110 nM,–,–

# The next lines start with results.
IC50 [1],IC50 [2],IC50 [4],SMILES,Ratio IC50 [3],also measured
10.6 µM,24.6 µM,20900 nM,NS(=O)(=O)c1ccc(/C=C2/C(=O)Nc3ccc(Br)cc32)cc1,1.18,–
9.87 µM,0.62 µM,180 nM,NS(=O)(=O)c1ccc(/C=C2/C(=O)Nc3ccc(F)cc32)cc1,3.44,inhibition in vivo at 9.65 mg/kg [5]: 33.3%; inhibition in vivo at 19.3 mg/kg [6]: 54%; inhibition in vivo at 9.65 mg/kg [7]: 44.4%; Activity [8]: 0.45 mm2; inhibition in vivo at 9.65 mg/kg [9]: 27.4%
3.37 µM,0.16 µM,3310 nM,NS(=O)(=O)c1ccc(/C=C2/C(=O)Nc3ccc(Cl)cc32)cc1,0.05,Activity [10]: 0.19 mm2; inhibition in vivo at 10.15 mg/kg [11]: 19.6%; inhibition in vivo at 10.15 mg/kg [12]: 19.1%; inhibition in vivo at 10.15 mg/kg [13]: 33.3%; inhibition in vivo at 20.3 mg/kg [14]: 80.7%
> 50 µM,> 50 µM,> 50000 nM,Cc1ccc2c(c1)/C(=C\c1ccc(S(N)(=O)=O)cc1)C(=O)N2,–,–
